Measurements reported in patent publication US8436016B2, “Fused heterocyclic M1 receptor positive allosteric modulators” (priority 2008, dated 2013).
pEC50: −log10 of the molar value. Like-named read-outs stand apart in the source and are kept apart here.

Target: T1, acetylcholine muscarinic M1 receptor (Homo sapiens, UniProt P11229)
T1 construct: expressed in transfected cells; host or cells: CHOnfat (CHO cells with an NFAT reporter background) expressing hM1, kept under Geneticin selection
T1 sequence (P11229 1-460): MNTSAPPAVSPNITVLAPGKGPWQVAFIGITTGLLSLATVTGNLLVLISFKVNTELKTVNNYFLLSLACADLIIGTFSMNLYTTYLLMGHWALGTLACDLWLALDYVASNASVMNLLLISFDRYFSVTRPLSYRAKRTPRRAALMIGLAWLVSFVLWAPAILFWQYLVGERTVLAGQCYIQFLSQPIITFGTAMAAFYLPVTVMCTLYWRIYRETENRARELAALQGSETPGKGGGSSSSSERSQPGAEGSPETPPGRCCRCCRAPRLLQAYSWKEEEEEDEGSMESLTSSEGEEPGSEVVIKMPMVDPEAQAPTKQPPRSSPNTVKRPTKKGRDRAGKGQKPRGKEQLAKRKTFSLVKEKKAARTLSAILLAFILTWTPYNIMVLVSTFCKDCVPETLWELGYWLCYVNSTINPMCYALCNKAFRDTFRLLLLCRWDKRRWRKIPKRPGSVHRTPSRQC
Test: muscarinic FLIPR assay: potentiation of acetylcholine (EC20)-stimulated intracellular Ca2+ in CHOnfat/hM1 cells
Type: cell-based
Experimental: The assay studies the effect of one or several concentrations of test compounds on basal or acetylcholine-stimulated Ca^2+ levels using FLIPR.
Compounds are prepared and subjected to a preincubation period of 4 min. Thereafter, a single EC20 concentration of acetylcholine is added to each well (3 nM final). The intracellular Ca^2+ level of each sample is measured and compared to an acetylcholine control to determine any modulatory activity.
Cells: CHOnfat/hM1, hM2, hM3 or hM4 cells are plated 24 hr before the assay at a density of 18,000 cells/well (100 μL) in a 384 well plate. CHOnfat/hM1 and CHOnfat/hM3 Growth Medium: 90% DMEM (Hi Glucose); 10% HI FBS; 2 mM L-glutamine; 0.1 mM NEAA; Pen-Strep; and 1 mg/ml Geneticin, are added. For M2Gqi5CHOnfat and M4Gqi5CHOnfat cells, an additional 600 μg/ml hygromycin is added.
Buffers. […] Dye Loading Buffer: Assay Buffer plus 1% Fetal Bovine Serum and Fluo-4AM/Pluronic Acid Mixture. […] 20% Pluronic Acid Solution stock, with a concentration of 0.04% in Buffer, 0.02% in Assay.
65 μL of 2 mM Fluo-4AM are mixed with 130 μL of 20% Pluronic Acid. The resulting solution and 650 μL FBS is added to the assay buffer for a total volume of 65 mL. Positive Controls: 4-Br-A23187: 10 mM in DMSO; final concentration 10 μM. Acetylcholine: 10 mM in water, working stock at both 20 μM and 30 μM in assay buffer, final concentration of 10 μM. This is used to check the maximum stimulation of the CHOK1/hM1 cells. 20 μM (2×) acetylcholine is added in the preincubation part of the assay, and the 30 μM (3×) stock is added in the second part. (EC20)Acetylcholine: 10 mM in water, working stock of 9 nM (3×), and final concentration in assay is 3 nM. This is used after the preincubation with test compounds. Addition of the EC20 Acetylcholine to each well with a test compound will ascertain any modulator activity. 24 wells contain 3 nM Acetylcholine alone as a control.
Determining Activity of Putative Compounds:
Four 96-well plates are combined into a 384-well plate using Mosquito Nanolitre Pipetting System by transferring 1 μl of serial diluted compounds to each well, and 1 mM acetylcholine (100× stock concentration) were added as a control. Using Term, 49 μl assay buffer is added to each well of the 384-well plate right before assay.
In a 96-well Whatman 2 ml Uniplate, 9 nM Acetylcholine (3×) is pipetted into wells corresponding to the screening compounds and into control wells. The 30 μM acetylcholine control (3×) is added into control wells and the 3× agonist plate is transferred into a 384-well plate.
Cells are washed three times with 100 μL of buffer, leaving 30 μL of buffer in each well. Using Multimek, 30 μL of Dye Loading Buffer is added into each well and incubated at 37° C., 5% CO2 for up to one hr.
After 60 min, the cells are washed three times with 100 μL of buffer, leaving 30 μL of buffer in each well. The cell plate, screening plate, and agonist addition plates are placed on the platform in the FLIPR and the door is closed. A signal test to check background fluorescence and basal fluorescence signal is performed. Laser intensity is adjusted if necessary.
4 min of preincubation with the test compounds is provided to determine any agonist activity on the M1 receptor by comparison to the 1 mM acetylcholine control. After preincubation, the EC20 value of acetylcholine (3 nM final) is added to determine any modulator activity.
The inflection point is calculated from the FLIPR values, and is a measure of activity.

[1] = CHOnfat/hM1 cells, FLIPR, 4 min preincubation, then EC20 acetylcholine (3 nM final), read-out: IP Value (inflection point)

pEC50 | pEC50 [1] | SMILES
7.14 | – | Cn1ncc2cc(Cn3cc(C(=O)O)c(=O)c4c(F)cccc43)ccc21 [Example 1, 5-Fluoro-1-[(1-methyl-1H-indazol-5-yl)methyl]-4-oxo-1,4-dihydroquinoline-3-carboxylic acid]
7.10 | – | O=C(O)c1cn(Cc2ccc3ccccc3c2)c2c(F)cccc2c1=O [Example 4]
– | 6.30 | O=C(O)c1cn(Cc2ccc3nccnc3c2)c2cccc(F)c2c1=O [Example 15]
– | 6.64 | O=C(O)c1cn(Cc2ccc3[nH]cnc3c2)c2cccc(F)c2c1=O [Example 42]
– | 6.83 | O=C(O)c1cn(Cc2cc3ccccc3s2)c2cccc(F)c2c1=O [Example 56]
– | 5.89 | O=C(O)c1cn(Cc2cccc3ccncc23)c2cccc(F)c2c1=O [Example 73]

Second part, the compound before the results:

SMILES | pEC50 | pEC50 [1]
O=C(O)c1cn(Cc2ccc3cc(F)ccc3c2)c2cccc(F)c2c1=O [Example 3, 5-Fluoro-1-[(6-fluoro-2-naphthyl)methyl]-4-oxo-1,4-dihydroquinoline-3-carboxylic acid] | – | 6.58
O=C(O)c1cn(Cc2ccc3c(c2)OCCO3)c2cccc(F)c2c1=O [Example 27] | 7.54 | –
O=C(O)c1cn(Cc2ccc3[nH]ccc3c2)c2cccc(F)c2c1=O [Example 33] | 7.03 | –
O=C1Cc2cc(Cn3cc(C(=O)O)c(=O)c4c(F)cccc43)ccc2N1 [Example 53] | 7.42 | –
O=C(O)c1cn(Cc2cc3ccccc3[nH]2)c2cccc(F)c2c1=O [Example 58] | 6.18 | –
